Results reported in US6426229B1, “Chelating agent and detergent comprising the same” (Mitsubishi Rayon Co., Ltd., priority 1995, dated 2002).

assay: Biodegradability, 301C Modified MITI Test (1) (OECD guideline); details: not given

Structure (SMILES)	biodegradability in 301C Modified MITI Test
O=C(O)CN[C@@H](CC(=O)O)C(=O)O [S-ASMA, (S)-aspartic acid-N-monoacetic acid]	completely converted to inorganic materials in a short time
O=C(O)CCN[C@@H](CC(=O)O)C(=O)O [S-ASMP, (S)-aspartic acid-N-monopropionic acid]	completely converted to inorganic materials in a short time
CN(CC(=O)O)CC(=O)O [MIDA, N-methyliminodiacetic acid]	completely decomposed to inorganic materials in a short time

assay: Storage of aqueous solution or slurry for 60 days: HPLC analysis of components and appearance; type: physicochemical; details: keeping temperature 50° C.
Method: (§1) This aqueous solution was kept at 50° C. for 60 days, and, then, the components were analyzed by HPLC and, simultaneously, the appearance of the solution was observed.
as §1
This aqueous solution was kept at 50° C. for 60 days. Then, the components were analyzed by HPLC and, simultaneously, the appearance of the solution was observed.

Structure (SMILES)	Appearance after kept for 60 days	Content of the compound of the formula [I] in aqueous solution after kept for 60 days [wt. %]
O=C([O-])CN[C@@H](CC(=O)[O-])C(=O)[O-].[Na+].[Na+].[Na+] [Example 85, trisodium salt of (S)-aspartic acid-N-monoacetic acid]	Light yellow transparent aqueous solution	35.4
O=C([O-])CN[C@@H](CC(=O)[O-])C(=O)[O-].[Na+].[Na+].[Na+] [compound 29, trisodium salt of (S)-aspartic acid-N-monoacetic acid]	Brown aqueous solution	31.1
O=C([O-])CN(CCS(=O)(=O)[O-])CC(=O)[O-].[Na+].[Na+].[Na+] [compound 40, trisodium salt of taurine-N,N-diacetic acid]	Brown slurry	29.5
O=C([O-])C[C@H](NCCN[C@@H](CC(=O)[O-])C(=O)[O-])C(=O)[O-].[Fe+3].[NH4+] [Example 125, iron ammonium (S,S)-ethylenediamine-N,N′-disuccinate]	Reddish brown aqueous solution	36.5
O=C([O-])CN(CCS(=O)(=O)[O-])CC(=O)[O-].[Na+].[Na+].[Na+] [Example 100, trisodium salt of taurine-N,N-diacetic acid]	Light yellow transparent aqueous solution	34.7
O=C([O-])CCN[C@@H](CC(=O)[O-])C(=O)[O-].[Na+].[Na+].[Na+] [compound 31, trisodium salt of (S)-aspartic acid-N-monopropionic acid]	Brown aqueous solution	33.2
O=C([O-])CC(NCCCNC(CC(=O)[O-])C(=O)[O-])C(=O)[O-].[Na+].[Na+].[Na+].[Na+] (centres unmarked) [Example 114, tetrasodium 1,3-propanediamine-N,N′-disuccinate]	Light yellow transparent aqueous solution	36.4
O=C([O-])C[C@H](NCCN[C@@H](CC(=O)[O-])C(=O)[O-])C(=O)[O-].[Na+].[Na+].[Na+].[Na+] [compound 44, tetrasodium (S,S)-ethylenediamine-N,N′-disuccinate]	Light yellow transparent aqueous solution	34.4
O=C([O-])C[C@@H](C(=O)[O-])N(CC(=O)[O-])CC(=O)[O-].[Na+].[Na+].[Na+].[Na+] [Example 86, tetrasodium salt of (S)-aspartic acid-N,N-diacetic acid]	Light yellow transparent aqueous solution	36.4
O=C([O-])C[C@@H](C(=O)[O-])N(CC(=O)[O-])CC(=O)[O-].[Na+].[Na+].[Na+].[Na+] [compound 30, tetrasodium salt of (S)-aspartic acid-N,N-diacetic acid]	Brown aqueous solution	31.8
O=C([O-])CC(NCCNC(CC(=O)[O-])C(=O)[O-])C(=O)[O-].[Na+].[Na+].[Na+].[Na+] (centres unmarked) [Example 112, tetrasodium ethylenediamine-N,N′-disuccinate]	Light yellow transparent aqueous solution	36.4

assay: not given; details: reported value; cited from earlier work

Structure (SMILES)	chelate stability constant for calcium
O=C(O)CN(CCS(=O)(=O)O)CC(=O)O [TUDA, taurine-N,N-diacetic acid]	4.2
CN(CC(=O)O)CC(=O)O [MIDA, N-methyliminodiacetic acid]	3.7
O=C(O)CN(CC(=O)O)CC(=O)O [NTA, nitrilotriacetic acid, reference compound]	6.4
O=C(O)C[C@@H](C(=O)O)N(CC(=O)O)CC(=O)O [S-ASDA, (S)-aspartic acid-N,N-diacetic acid]	5.8
